Experimental data: ChEMBL document CHEMBL4346688, “Discovery of novel mutant-combating ALK and ROS1 dual inhibitors bearing imidazolidin-2-one moiety with reasonable PK properties” (Eur J Med Chem, 2019)
Activity calls are given as the source filed them. The rule behind the calls is not given here.

Legend:
[1] = target: ALK tyrosine kinase receptor (Homo sapiens, UniProt Q9UM73, G1202R)
NCI-H2228 = assay: cells; conditions: Homo sapiens, NCI-H2228, 72 h
Description: Cytotoxicity against human NCI-H2228 cells incubated for 72 hrs by MTT assay

[2] = target: ALK tyrosine kinase receptor (Homo sapiens, UniProt Q9UM73, L1196M)
Sequence of ALK tyrosine kinase receptor (Homo sapiens, UniProt Q9UM73, L1196M) (Q9UM73 19-1620 L1196M limits assumed): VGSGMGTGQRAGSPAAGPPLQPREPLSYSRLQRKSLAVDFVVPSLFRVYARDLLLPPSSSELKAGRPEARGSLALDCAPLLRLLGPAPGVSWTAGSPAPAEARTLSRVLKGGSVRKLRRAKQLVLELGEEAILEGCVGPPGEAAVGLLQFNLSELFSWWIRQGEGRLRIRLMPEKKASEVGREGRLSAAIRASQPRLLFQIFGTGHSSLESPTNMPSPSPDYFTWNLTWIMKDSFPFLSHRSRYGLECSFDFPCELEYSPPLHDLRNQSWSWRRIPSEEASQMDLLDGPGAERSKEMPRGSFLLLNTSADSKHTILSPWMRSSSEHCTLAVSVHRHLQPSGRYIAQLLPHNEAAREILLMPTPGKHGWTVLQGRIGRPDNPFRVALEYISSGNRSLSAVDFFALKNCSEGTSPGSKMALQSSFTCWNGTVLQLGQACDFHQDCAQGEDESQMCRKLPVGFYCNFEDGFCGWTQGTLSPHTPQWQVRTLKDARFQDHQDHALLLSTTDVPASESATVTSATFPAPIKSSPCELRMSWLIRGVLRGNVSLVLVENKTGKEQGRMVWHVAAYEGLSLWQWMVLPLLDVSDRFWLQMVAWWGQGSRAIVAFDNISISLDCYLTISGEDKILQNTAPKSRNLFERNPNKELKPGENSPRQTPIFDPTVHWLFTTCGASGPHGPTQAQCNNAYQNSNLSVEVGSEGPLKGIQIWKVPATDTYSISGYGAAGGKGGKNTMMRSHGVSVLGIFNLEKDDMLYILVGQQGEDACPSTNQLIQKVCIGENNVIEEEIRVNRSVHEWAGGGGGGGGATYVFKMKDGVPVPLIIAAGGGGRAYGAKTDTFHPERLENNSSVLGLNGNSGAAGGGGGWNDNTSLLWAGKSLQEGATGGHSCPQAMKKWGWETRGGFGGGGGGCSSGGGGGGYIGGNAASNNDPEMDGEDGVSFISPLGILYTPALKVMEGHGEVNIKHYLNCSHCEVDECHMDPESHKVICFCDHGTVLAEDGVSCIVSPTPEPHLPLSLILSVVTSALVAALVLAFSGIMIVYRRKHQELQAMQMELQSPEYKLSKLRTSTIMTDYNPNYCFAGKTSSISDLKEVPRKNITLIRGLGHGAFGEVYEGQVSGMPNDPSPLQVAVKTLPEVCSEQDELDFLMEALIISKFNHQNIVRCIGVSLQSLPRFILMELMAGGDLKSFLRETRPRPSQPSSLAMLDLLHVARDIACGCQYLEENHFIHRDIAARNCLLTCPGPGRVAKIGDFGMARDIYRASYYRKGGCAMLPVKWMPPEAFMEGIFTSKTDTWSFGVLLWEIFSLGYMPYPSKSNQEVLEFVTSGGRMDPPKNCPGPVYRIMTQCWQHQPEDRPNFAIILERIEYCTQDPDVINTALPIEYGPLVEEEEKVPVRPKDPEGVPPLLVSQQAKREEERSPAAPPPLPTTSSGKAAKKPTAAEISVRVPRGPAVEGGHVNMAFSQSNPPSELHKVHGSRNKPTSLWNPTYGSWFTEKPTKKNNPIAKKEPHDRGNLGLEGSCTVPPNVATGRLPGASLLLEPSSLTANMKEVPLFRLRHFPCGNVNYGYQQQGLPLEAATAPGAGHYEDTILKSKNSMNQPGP

KARPAS-299 = assay: cells; conditions: Homo sapiens, KARPAS-299, 72 h
Description: Cytotoxicity against human KARPAS299 cells incubated for 72 hrs by MTT assay

A549 [3] = assay: cells; conditions: Homo sapiens, A549, 72 h
A549 [4] = assay: cells; conditions: Homo sapiens, A549, 72 h; remark: listed apart in the source
Description: Cytotoxicity against human A549 cells incubated for 72 hrs by MTT assay

BaF3 [5] = assay: cells; conditions: Mus musculus, BaF3, 72 h
Description: Cytotoxicity against mouse BA/F3 cells incubated for 72 hrs by MTT assay

HCC78 = assay: cells; conditions: Homo sapiens, HCC78, 72 h
Description: Cytotoxicity against human HCC78 cells incubated for 72 hrs by MTT assay

[6] = target: Epidermal growth factor receptor (Homo sapiens, UniProt P00533)
Sequence of Epidermal growth factor receptor (P00533 whole entry): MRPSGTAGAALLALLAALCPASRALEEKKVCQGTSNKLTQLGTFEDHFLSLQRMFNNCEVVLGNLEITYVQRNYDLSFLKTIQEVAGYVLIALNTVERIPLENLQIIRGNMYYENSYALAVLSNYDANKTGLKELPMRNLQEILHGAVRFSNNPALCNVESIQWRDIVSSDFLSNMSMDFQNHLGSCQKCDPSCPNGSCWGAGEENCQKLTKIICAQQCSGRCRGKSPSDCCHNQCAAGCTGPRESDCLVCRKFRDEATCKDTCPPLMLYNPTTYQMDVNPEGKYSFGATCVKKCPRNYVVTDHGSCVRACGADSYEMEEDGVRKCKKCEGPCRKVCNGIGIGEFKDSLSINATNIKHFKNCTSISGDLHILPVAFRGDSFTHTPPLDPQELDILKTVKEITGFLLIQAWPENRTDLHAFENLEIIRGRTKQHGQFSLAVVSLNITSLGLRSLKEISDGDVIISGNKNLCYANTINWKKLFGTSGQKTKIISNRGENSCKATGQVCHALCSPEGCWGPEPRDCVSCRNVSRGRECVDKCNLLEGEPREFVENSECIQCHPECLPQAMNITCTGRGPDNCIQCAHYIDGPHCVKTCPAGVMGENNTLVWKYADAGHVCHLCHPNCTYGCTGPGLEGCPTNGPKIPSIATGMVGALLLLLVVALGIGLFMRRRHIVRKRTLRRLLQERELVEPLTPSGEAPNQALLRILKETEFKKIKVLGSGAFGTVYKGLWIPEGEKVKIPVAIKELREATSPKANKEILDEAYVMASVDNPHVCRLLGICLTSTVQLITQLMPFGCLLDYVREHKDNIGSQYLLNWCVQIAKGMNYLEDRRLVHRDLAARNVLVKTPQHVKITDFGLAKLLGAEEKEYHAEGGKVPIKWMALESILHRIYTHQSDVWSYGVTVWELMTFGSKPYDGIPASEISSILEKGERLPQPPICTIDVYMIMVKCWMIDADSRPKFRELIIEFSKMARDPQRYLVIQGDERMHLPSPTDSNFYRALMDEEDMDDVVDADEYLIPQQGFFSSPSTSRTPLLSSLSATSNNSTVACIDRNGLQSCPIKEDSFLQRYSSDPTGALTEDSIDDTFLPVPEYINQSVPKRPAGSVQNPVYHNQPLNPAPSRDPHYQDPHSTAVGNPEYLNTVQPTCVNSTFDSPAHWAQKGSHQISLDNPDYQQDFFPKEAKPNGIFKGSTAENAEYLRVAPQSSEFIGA
Description: Inhibition of N-terminal GST-tagged human EGFR cytoplasmic domain (669 to 1210 residues) expressed in Baculovirus expression system using srctide as substrate incubated for 1 hr by mobility shift assay

[7] = target: T1, Proto-oncogene tyrosine-protein kinase ROS (Homo sapiens, UniProt P08922)
Description: Inhibition of N-terminal GST-tagged human ROS1 cytoplasmic domain (1883 to 2347 residues) expressed in Baculovirus expression system using IRS1 as substrate incubated for 1 hr by mobility shift assay

BaF3 [8] = assay: cells; conditions: Mus musculus, BaF3, 72 h; remark: listed apart in the source
[9] = target: T2, ALK tyrosine kinase receptor (Homo sapiens, UniProt Q9UM73)
Target sequence in this assay (Q9UM73 whole entry): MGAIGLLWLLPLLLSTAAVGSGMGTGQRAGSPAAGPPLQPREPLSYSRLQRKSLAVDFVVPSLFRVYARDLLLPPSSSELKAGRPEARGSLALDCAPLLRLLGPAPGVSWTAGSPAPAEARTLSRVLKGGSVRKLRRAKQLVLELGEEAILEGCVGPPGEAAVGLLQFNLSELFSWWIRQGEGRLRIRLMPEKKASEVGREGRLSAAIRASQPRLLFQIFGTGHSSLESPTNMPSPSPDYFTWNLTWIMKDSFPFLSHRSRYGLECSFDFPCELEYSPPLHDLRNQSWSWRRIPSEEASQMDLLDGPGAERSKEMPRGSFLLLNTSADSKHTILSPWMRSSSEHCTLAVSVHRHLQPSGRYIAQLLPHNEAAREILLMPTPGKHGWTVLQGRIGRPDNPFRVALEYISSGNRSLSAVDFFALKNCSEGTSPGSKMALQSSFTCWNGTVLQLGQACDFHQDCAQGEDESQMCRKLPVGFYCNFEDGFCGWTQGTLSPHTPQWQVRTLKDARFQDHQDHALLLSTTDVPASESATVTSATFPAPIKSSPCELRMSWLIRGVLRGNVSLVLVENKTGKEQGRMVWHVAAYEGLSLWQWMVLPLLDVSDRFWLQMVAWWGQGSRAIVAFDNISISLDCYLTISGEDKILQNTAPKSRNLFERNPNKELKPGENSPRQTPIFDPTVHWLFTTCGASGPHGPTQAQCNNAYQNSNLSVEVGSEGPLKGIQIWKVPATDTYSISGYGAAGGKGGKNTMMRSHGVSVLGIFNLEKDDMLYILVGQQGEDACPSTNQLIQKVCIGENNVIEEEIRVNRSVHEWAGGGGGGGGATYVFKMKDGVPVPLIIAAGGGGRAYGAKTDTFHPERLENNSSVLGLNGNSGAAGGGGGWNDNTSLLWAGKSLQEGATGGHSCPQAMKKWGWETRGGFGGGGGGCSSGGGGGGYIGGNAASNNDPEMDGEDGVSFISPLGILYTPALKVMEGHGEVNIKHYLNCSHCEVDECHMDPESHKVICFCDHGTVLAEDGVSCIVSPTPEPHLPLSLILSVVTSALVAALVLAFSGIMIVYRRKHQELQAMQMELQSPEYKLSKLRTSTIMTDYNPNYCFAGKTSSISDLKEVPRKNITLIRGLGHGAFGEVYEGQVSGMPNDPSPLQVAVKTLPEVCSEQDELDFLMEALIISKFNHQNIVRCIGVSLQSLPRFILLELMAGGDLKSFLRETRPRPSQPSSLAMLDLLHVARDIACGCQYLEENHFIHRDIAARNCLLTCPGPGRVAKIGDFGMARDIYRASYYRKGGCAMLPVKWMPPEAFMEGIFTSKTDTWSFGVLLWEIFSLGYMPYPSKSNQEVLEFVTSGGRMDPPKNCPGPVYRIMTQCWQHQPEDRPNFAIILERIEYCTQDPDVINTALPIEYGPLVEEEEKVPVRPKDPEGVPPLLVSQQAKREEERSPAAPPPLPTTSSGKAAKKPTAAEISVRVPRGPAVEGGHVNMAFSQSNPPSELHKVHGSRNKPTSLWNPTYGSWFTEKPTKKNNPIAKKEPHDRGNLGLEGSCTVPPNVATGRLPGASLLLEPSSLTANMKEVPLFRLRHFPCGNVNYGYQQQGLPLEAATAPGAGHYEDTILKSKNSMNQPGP
Description: Inhibition of N-terminal GST-tagged human ALK cytoplasmic domain (1058 to 1620 residues) expressed in Baculovirus expression system using srctide as substrate incubated for 1 hr by mobility shift assay

in vivo = conditions: Sprague-Dawley, rat, po, 10 mg/kg
[10] = Half life in Sprague-Dawley rat at 10 mg/kg, po by UPLC/MS/MS analysis; type: ADME, organism-based; conditions: in vivo
[11] = Tmax in Sprague-Dawley rat at 10 mg/kg, po by UPLC/MS/MS analysis; type: ADME, organism-based; conditions: in vivo
[12] = AUCt in Sprague-Dawley rat at 10 mg/kg, po by UPLC/MS/MS analysis; type: ADME, organism-based; conditions: in vivo
[13] = AUCinfinity in Sprague-Dawley rat at 10 mg/kg, po by UPLC/MS/MS analysis; type: ADME, organism-based; set-up: dose 10 mg/kg, route oral, time infinity; conditions: in vivo
Homo sapiens [14] = species: Homo sapiens; assay: Selectivity index, ratio of IC50 for FGFR (unknown origin) to IC50 for N-terminal GST-tagged human ALK cytoplasmic domain (1058 to 1620 residues)
Homo sapiens [15] = species: Homo sapiens; assay: Selectivity index, ratio of IC50 for N-terminal GST-tagged human IGF1R cytoplasmic domain (959 to 1367 residues) to IC50 for N-terminal GST-tagged human ALK cytoplasmic domain (1058 to 1620 residues)
[16] = target: T2, ALK tyrosine kinase receptor; assay: Inhibition of ALK phosphorylation in human H2228 cells incubated for 24 hrs by Western blot analysis; type: cell-based
Target sequence in this assay (Q9UM73 19-1620 limits assumed): as the sequence (Q9UM73 19-1620 L1196M limits assumed) above, with M1178L counted along it

[17] = Inhibition of PI3K (unknown origin) incubated for 1 hr by mobility shift assay; set-up: species or system Homo sapiens
[18] = target: Tyrosine-protein kinase JAK2 (Homo sapiens, UniProt O60674); assay: Inhibition of N-terminal GST-tagged human JAK2 catalytic domain (826 to 1132 residues) expressed in Baculovirus expression system using srctide as substrate incubated for 1 hr by mobility shift assay
Homo sapiens [19] = species: Homo sapiens; assay: Selectivity index, ratio of IC50 for N-terminal GST-tagged human c-MET cytoplasmic domain (956 to 1390 residues) to IC50 for N-terminal GST-tagged human ALK cytoplasmic domain (1058 to 1620 residues)
[20] = target: Cyclin-dependent kinase 4 (Homo sapiens, UniProt P11802); assay: Inhibition of N-terminal GST-tagged full length human CDK4 (1 to 303 residues) expressed in Baculovirus expression system using DYRKtide F as substrate incubated for 1 hr by mobility shift assay
Sequence of Cyclin-dependent kinase 4 (P11802 whole entry, the tested form may be a part): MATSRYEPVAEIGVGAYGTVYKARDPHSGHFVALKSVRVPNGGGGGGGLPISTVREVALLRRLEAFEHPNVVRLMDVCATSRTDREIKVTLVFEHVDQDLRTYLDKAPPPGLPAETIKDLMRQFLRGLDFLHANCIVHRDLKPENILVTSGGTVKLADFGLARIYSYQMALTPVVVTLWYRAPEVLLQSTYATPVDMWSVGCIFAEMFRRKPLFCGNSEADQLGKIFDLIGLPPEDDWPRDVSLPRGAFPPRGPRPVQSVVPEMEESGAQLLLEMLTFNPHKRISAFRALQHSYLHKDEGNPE

[21] = Cmax in Sprague-Dawley rat at 2 mg/kg, iv by UPLC/MS/MS analysis; type: ADME, organism-based; set-up: dose 2 mg/kg, route intravenous; conditions: in vivo
[22] = target: Proto-oncogene tyrosine-protein kinase receptor Ret (Homo sapiens, UniProt P07949); assay: Inhibition of N-terminal GST-tagged human RET cytoplasmic domain (658 to 1114 residues) expressed in baculovirus expression system using CSKtide as substrate incubated for 1 hr by mobility shift assay
[23] = Volume of distribution in Sprague-Dawley rat at 2 mg/kg, iv by UPLC/MS/MS analysis; type: ADME, organism-based; conditions: in vivo
[24] = Oral bioavailability in Sprague-Dawley rat at 10 mg/kg by UPLC/MS/MS analysis; type: ADME, organism-based; conditions: in vivo
[25] = AUCinfinity in Sprague-Dawley rat at 2 mg/kg, iv by UPLC/MS/MS analysis; type: ADME, organism-based; set-up: dose 2 mg/kg, route intravenous, time infinity; conditions: in vivo
[26] = Half life in Sprague-Dawley rat at 2 mg/kg, iv by UPLC/MS/MS analysis; type: ADME, organism-based; conditions: in vivo
[27] = target: T1, Proto-oncogene tyrosine-protein kinase ROS; remark: listed apart in the source
[28] = target: Insulin-like growth factor 1 receptor (Homo sapiens, UniProt P08069); assay: Inhibition of N-terminal GST-tagged human IGF1R cytoplasmic domain (959 to 1367 residues) expressed in baculovirus expression system using IRS1 as substrate incubated for 1 hr by mobility shift assay
[29] = target: Fibroblast growth factor receptor (Homo sapiens, UniProt P22607+P11362+P22455+P21802); assay: Inhibition of FGFR (unknown origin) incubated for 1 hr by mobility shift assay; type: protein assay
[30] = target: Tyrosine-protein kinase BTK (Homo sapiens, UniProt Q06187); assay: Inhibition of N-terminal GST-tagged full length human BTK (2 to 659 residues) expressed in Baculovirus expression system using srctide as substrate incubated for 1 hr by mobility shift assay
[31] = target: Hepatocyte growth factor receptor (Homo sapiens, UniProt P08581); assay: Inhibition of N-terminal GST-tagged human c-MET cytoplasmic domain (956 to 1390 residues) expressed in Baculovirus expression system using srctide as substrate incubated for 1 hr by mobility shift assay
[32] = Biovailability in Sprague-Dawley rat at 2 mg/kg, iv by UPLC/MS/MS analysis; type: ADME, organism-based; conditions: in vivo
[33] = AUCt in Sprague-Dawley rat at 2 mg/kg, iv by UPLC/MS/MS analysis; type: ADME, organism-based; conditions: in vivo
Homo sapiens [34] = species: Homo sapiens; assay: Selectivity index, ratio of IC50 for N-terminal GST-tagged full length human CDK4 (1 to 303 residues) to IC50 for N-terminal GST-tagged human ALK cytoplasmic domain (1058 to 1620 residues)
[35] = target: T2, ALK tyrosine kinase receptor; assay: Inhibition of ALK phosphorylation in human H2228 cells at 100 uM incubated for 24 hrs by Western blot analysis; type: cell-based
Target sequence in this assay (Q9UM73 19-1620 limits assumed): as the sequence (Q9UM73 19-1620 L1196M limits assumed) above, with M1178L counted along it

[36] = test system: ALK tyrosine kinase receptor (Homo sapiens), Q9UM73 [G1202R]; assay: Potency index, ratio of IC50 for ceritinib to IC50 for test compound for inhibition of N-terminal GST-tagged human ALK G1202R mutant cytoplasmic domain (1058 to 1620 residues) expressed in baculovirus expression system using srctide as substrate incubated for 1 hr by mobility shift assay
Sequence of ALK tyrosine kinase receptor (Homo sapiens), Q9UM73 [G1202R] (Q9UM73 whole entry G1202R, the tested form may be a part): as the sequence (Q9UM73 whole entry) above, with G1202R counted along it

Sequence of ALK tyrosine kinase receptor (Homo sapiens, UniProt Q9UM73, G1202R) (Q9UM73 19-1620 G1202R limits assumed): as the sequence (Q9UM73 19-1620 L1196M limits assumed) above, with M1178L, G1184R counted along it

COc1cc(N2CCN(CC(N)=O)C2=O)ccc1Nc1ncc(Cl)c(Nc2ccccc2S(=O)(=O)C(C)C)n1
IC50 [1]: 8.5 nM
IC50 (NCI-H2228): 370 nM
IC50 [2]: 0.95 nM
IC50 (KARPAS-299): 98 nM
IC50 (A549 [3]): 110 nM
IC50 (A549 [4]): > 5000 nM
IC50 (BaF3 [5]): 1690 nM
IC50 (HCC78): 870 nM
IC50 [6]: > 1000 nM
IC50 [7]: 0.76 nM
IC50 (BaF3 [8]): 79 nM
IC50 [9]: 2.7 nM

COc1cc(N2CCNC2=O)ccc1Nc1ncc(Cl)c(Nc2ccccc2S(=O)(=O)C(C)C)n1
IC50 [1]: 20.1 nM
IC50 (NCI-H2228): 350 nM
IC50 [2]: 4.2 nM
Cmax (in vivo): 257 ng/mL
half-life [10]: 1.4 h
Tmax [11]: 5.1 h
IC50 (KARPAS-299): 38 nM
IC50 (A549 [3]): 100 nM
IC50 (A549 [4]): > 5000 nM
IC50 (BaF3 [5]): 2710 nM
IC50 (HCC78): 97 nM
AUC(0-t) [12]: 1400 ng·h/mL
IC50 [6]: 765 nM
IC50 [7]: 6.8 nM
IC50 (BaF3 [8]): 450 nM
AUC(0-inf) [13]: 1660 ng·h/mL
IC50 [9]: 7.3 nM

COc1cc(N2CCN(CC(=O)N3CCN(C)CC3)C2=O)ccc1Nc1ncc(Cl)c(Nc2ccccc2S(=O)(=O)C(C)C)n1
IC50 [1]: 10.3 nM
IC50 (NCI-H2228): 41 nM
IC50 [2]: 0.87 nM
IC50 (KARPAS-299): 39 nM
IC50 (A549 [3]): 94 nM
IC50 (A549 [4]): 1720 nM
IC50 (BaF3 [5]): > 5000 nM
IC50 (HCC78): 87 nM
IC50 [6]: > 1000 nM
IC50 [7]: 0.81 nM
IC50 (BaF3 [8]): 69 nM
IC50 [9]: 2.1 nM

COc1cc(N2CCN(CC(=O)N(C)C)C2=O)ccc1Nc1ncc(Cl)c(Nc2ccccc2S(=O)(=O)C(C)C)n1
IC50 [1]: 23.4 nM
IC50 (NCI-H2228): 530 nM
IC50 [2]: 3.7 nM
IC50 (KARPAS-299): 95 nM
IC50 (A549 [3]): 1230 nM
IC50 (A549 [4]): 2300 nM
IC50 (BaF3 [5]): > 5000 nM
IC50 (HCC78): 93 nM
IC50 [6]: 598 nM
IC50 [7]: 0.97 nM
IC50 (BaF3 [8]): 1380 nM
IC50 [9]: 6.7 nM

COc1cc(N2CCN(CCCN)C2=O)ccc1Nc1ncc(Cl)c(Nc2ccccc2S(=O)(=O)C(C)C)n1
IC50 [1]: 11.9 nM
IC50 (NCI-H2228): 530 nM
IC50 [2]: 5.1 nM
IC50 (KARPAS-299): 170 nM
IC50 (A549 [3]): 1980 nM
IC50 (A549 [4]): > 5000 nM
IC50 (BaF3 [5]): > 5000 nM
IC50 (HCC78): 160 nM
IC50 [6]: > 1000 nM
IC50 [7]: 5.3 nM
IC50 (BaF3 [8]): 94 nM
IC50 [9]: 4.7 nM

CNC(=O)CN1CCN(c2ccc(Nc3ncc(Cl)c(Nc4ccccc4S(=O)(=O)C(C)C)n3)c(OC)c2)C1=O
IC50 (NCI-H2228): 670 nM
IC50 (KARPAS-299): 760 nM
IC50 (A549 [3]): 140 nM
IC50 (A549 [4]): > 5000 nM
IC50 (BaF3 [5]): > 5000 nM
IC50 (HCC78): 610 nM
IC50 (BaF3 [8]): 1710 nM

COc1cc(N2CCN(CCN(C)C)C2=O)ccc1Nc1ncc(Cl)c(Nc2ccccc2S(=O)(=O)C(C)C)n1
Ratio IC50 (Homo sapiens [14]): 477
IC50 [1]: 6.7 nM
Ratio IC50 (Homo sapiens [15]): 91
inhibition [16]: Dose-dependent effect
IC50 [17]: > 1000 nM
IC50 (NCI-H2228): 37 nM
IC50 [18]: > 1000 nM
IC50 [2]: 0.73 nM
Cmax (in vivo): 297 ng/mL
half-life [10]: 7.4 h
Tmax [11]: 5.3 h
IC50 (KARPAS-299): 14 nM
IC50 (A549 [3]): 73 nM
Ratio IC50 (Homo sapiens [19]): 178
IC50 [20]: 417 nM
Cmax [21]: 252 ng/mL
IC50 (A549 [4]): > 5000 nM
IC50 [22]: > 1000 nM
IC50 (BaF3 [5]): 3130 nM
IC50 (HCC78): 29 nM
Vd [23]: 9.93 L/kg
AUC(0-t) [12]: 3420 ng·h/mL
bioavailability [24]: 23%
AUC [25]: 1965.3 ng·h/mL
half-life [26]: 6.9 h
Ratio IC50 [27]: 7
IC50 [6]: > 1000 nM
IC50 [28]: 109 nM
IC50 [29]: 573 nM
IC50 [30]: > 1000 nM
IC50 [31]: 213 nM
IC50 [7]: 0.43 nM
IC50 (BaF3 [8]): 34 nM
F [32]: 100%
AUC(0-t) [33]: 1690 ng·h/mL
AUC(0-inf) [13]: 4510 ng·h/mL
Ratio IC50 (Homo sapiens [34]): 348
inhibition [35]: Active
IC50 [9]: 1.2 nM
Ratio IC50 [36]: 30
